From patent publication US9321728B2, “Beta-alanine derivatives, pharmaceutically acceptable salts thereof, and pharmaceutical composition comprising same as active ingredient” (KOREA RESEARCH INSTITUTE OF CHEMICAL TECHNOLOGY, priority 2012, dated 2016)

Molecular target: human DGAT1 (Homo sapiens (Human), UniProt O75907)
Experiment: Human DGAT1 enzyme inhibition test (phospholipid FlashPlate, [14C]decanoyl-CoA)
Format: biochemical
Settings: for IC50: lysate of Hep3B cells over-expressing human DGAT1 (5 μg/well), didecanoyl glycerol and [14C]decanoyl-CoA substrates; for in vitro inhibition activity with respect to DGAT1: verbal summary of Table 1
Protocol: The cells were treated with 200 μg/ml G-418(Sigma) once every three days for 4 weeks to over-express the human DGAT1, thereby obtaining a stabilized cell line. The over-expressed cells were put into a homogenization buffer [250 mM sucrose, 10 mM Tris-HCl (pH 7.4), 1 mM EDTA] and lysed by a homogenization apparatus. Then, centrifugation was performed with 600×g for 15 minutes to remove cell residue, and the obtained cells were used for an enzyme inhibition test. Human DGAT-1 and mouse DGAT activity was determined as follows: Assay buffer [20 mM HEPES (pH 7.4), 100 mM MgCl2, 0.04% BSA] containing 500 μM of enzyme substrate (didecanoyl glycerol) and 7.5 μM radiolabeled acyl-CoA substrate ([^14C]decanoyl-CoA) was added to each well of a phospholipid FlashPlate (PerkinElmer Life Sciences). A small aliquot of lysate (5 μg/well) or mouse liver microsome (0.1 mg/well) was added to start the reaction, which was allowed to proceed in a 20° C. bath for 1 hour. and maintained overnight at room temperature. Next day, measurement was performed by Wallac 1450 Microbeta Trilux Liquid Scintillation Counter and Luminometer (PerkinElmer Life Science). […] A calculation method of inhibition degree (%) is as follows.

Sequence of human DGAT1 (O75907 whole entry): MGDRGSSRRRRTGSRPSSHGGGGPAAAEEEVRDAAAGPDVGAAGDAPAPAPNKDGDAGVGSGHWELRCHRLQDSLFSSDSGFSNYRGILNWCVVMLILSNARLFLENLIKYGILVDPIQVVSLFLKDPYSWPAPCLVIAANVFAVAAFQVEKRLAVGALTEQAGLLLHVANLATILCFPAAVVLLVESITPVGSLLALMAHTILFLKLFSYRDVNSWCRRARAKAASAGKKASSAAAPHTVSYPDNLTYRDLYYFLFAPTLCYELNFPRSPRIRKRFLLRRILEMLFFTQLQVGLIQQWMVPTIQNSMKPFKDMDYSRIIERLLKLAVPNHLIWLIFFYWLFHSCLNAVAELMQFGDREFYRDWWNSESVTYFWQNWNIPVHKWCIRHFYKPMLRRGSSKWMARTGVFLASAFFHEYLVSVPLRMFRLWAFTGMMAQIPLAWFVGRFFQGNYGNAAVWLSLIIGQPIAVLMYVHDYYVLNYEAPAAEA

Structure (SMILES)	IC50	in vitro inhibition activity with respect to DGAT1
O=C(O)C[C@H]1CC[C@H](c2ccc(NC(=O)CCNC(=O)c3oc(-c4ccccc4)nc3C(F)(F)F)cc2)CC1 [Compound 15, trans-[4-(4-{3-[(2-phenyl-4-trifluoromethyloxazole-5-carbonyl)amino]propionylamino}phenyl)cyclohexyl]acetic acid]	< 0.1 µM	
O=C(O)C[C@H]1CC[C@H](c2ccc(NC(=O)CCNC(=O)c3ccc(-c4ccccc4)c(Cl)c3)cc2)CC1 [Compound 94, trans-[4-(4-{3-[(2-chlorobiphenyl-4-carbonyl)amino]propionylamino}phenyl)cyclohexyl]acetic acid]	< 0.05 µM	good to excellent
O=C(O)C[C@H]1CC[C@H](c2ccc(NC(=O)CCNC(=O)c3nc(-c4ccccc4C(F)(F)F)oc3C(F)(F)F)cc2)CC1 [Compound 66, trans-{4-[4-(3-{[5-trifluoromethyl-2-(2-trifluoromethylphenyl)oxazole-4-carbonyl]amino}propionylamino)phenyl]cyclohexyl}acetic acid]	< 0.05 µM	good to excellent
Cc1nc(-c2ccccc2)sc1C(=O)NCCC(=O)Nc1ccc([C@H]2CC[C@H](CC(=O)O)CC2)cc1 [Compound 33, trans-[4-(4-{3-[(4-methyl-2-phenylthiazole-5-carbonyl)amino]propionylamino}phenyl)cyclohexyl]acetic acid]	< 0.5 µM	
O=C(O)C[C@H]1CC[C@H](c2ccc(NC(=O)CCNC(=O)c3nc(-c4c(Cl)cccc4Cl)oc3C(F)(F)F)cc2)CC1 [Compound 69, sodium; trans-{4-[4-(3-{[2-(2,6-dichlorophenyl)-5-trifluoromethyloxazole-4-carbonyl]amino}propionylamino)phenyl]cyclohexyl}acetate]	< 0.05 µM	
O=C(O)C[C@H]1CC[C@H](c2ccc(NC(=O)CCNC(=O)c3nc(-c4c(Cl)cccc4Cl)oc3C(F)(F)F)cc2)CC1 [Compound 68, trans-{4-[4-(3-{[2-(2,6-dichlorophenyl)-5-trifluoromethyloxazole-4-carbonyl]amino}propionylamino)phenyl]cyclohexyl}acetic acid]	< 0.05 µM	good to excellent
